Structures can show the parent of a compound that is named as a salt.
Assays:
[1] = moisture absorption during storage; assay type: physicochemical; conditions: for color change due to moisture absorption: hydrochloride
Description: With regard to moisture absorption, α form crystal undergoes increase in weight by moisture absorption of 0.85 to 2% during storage for 14 days under the conditions of 25° C. and at relative humidity of 20 to 75%. […] On the other hand, weight of the β form crystal gradually increases under the conditions of 25° C. and a relative humidity of 60%, and weight increase is 3.5% at 18 hours and the increase continues to the maximum of 3.9%. From this, α form crystal is more moisture-stable than β form. […] Accordingly, α form crystal is suitable for storage.

[2] = assay type: physicochemical
Description: Furthermore, in differential thermal analysis, α form crystal has only one endothermic peak near the 250° C. as shown in FIG. 5 while β form crystal has two endothermic peaks near 180° C. and near 230° C. as shown in FIG. 6.

Structure (SMILES)	weight increase by moisture absorption ([1]; 25° C., relative humidity of 60%, at 18 hours) [%]	maximum weight increase by moisture absorption ([1]; 25° C., relative humidity of 60%, maximum) [%]	color change due to moisture absorption [1]	course of weight increase over storage ([1]; 25° C., relative humidity of 20 to 75%, day 1 to day 14)	endothermic peak in differential thermal analysis (thermal stability) [2] [°C]
C[C@H](O)[C@H](O)[C@H]1CNc2nc(N)[nH]c(=O)c2N1 [β form crystal, sapropterin hydrochloride]	3.5	3.9	changes the color from white to pale yellow	–	–
C[C@H](O)[C@H](O)[C@H]1CNc2nc(N)[nH]c(=O)c2N1 [α form crystal, sapropterin hydrochloride]	–	–	does not change its color	stable from day 1 to day 14	~250

From patent US8039617B2, “Method for producing alpha form crystals of sapropterin hydrochloride” (Shiratori Pharmaceutical Co., Ltd., priority 2005, dated 2011)
